Assays:
Experiment in all cases: Kinase selectivity, scanMAX Kinase assay panel (DiscoverX), % control at 1 uM
Format in all cases: binding
[1] = target: T1, scanMAX Kinase assay panel (Homo sapiens, UniProt O95382); settings: ASK2; 1 uM; read-out: Percent Control (%)
T1 construct: purchased DiscoverX
T1 sequence (O95382 1-1288): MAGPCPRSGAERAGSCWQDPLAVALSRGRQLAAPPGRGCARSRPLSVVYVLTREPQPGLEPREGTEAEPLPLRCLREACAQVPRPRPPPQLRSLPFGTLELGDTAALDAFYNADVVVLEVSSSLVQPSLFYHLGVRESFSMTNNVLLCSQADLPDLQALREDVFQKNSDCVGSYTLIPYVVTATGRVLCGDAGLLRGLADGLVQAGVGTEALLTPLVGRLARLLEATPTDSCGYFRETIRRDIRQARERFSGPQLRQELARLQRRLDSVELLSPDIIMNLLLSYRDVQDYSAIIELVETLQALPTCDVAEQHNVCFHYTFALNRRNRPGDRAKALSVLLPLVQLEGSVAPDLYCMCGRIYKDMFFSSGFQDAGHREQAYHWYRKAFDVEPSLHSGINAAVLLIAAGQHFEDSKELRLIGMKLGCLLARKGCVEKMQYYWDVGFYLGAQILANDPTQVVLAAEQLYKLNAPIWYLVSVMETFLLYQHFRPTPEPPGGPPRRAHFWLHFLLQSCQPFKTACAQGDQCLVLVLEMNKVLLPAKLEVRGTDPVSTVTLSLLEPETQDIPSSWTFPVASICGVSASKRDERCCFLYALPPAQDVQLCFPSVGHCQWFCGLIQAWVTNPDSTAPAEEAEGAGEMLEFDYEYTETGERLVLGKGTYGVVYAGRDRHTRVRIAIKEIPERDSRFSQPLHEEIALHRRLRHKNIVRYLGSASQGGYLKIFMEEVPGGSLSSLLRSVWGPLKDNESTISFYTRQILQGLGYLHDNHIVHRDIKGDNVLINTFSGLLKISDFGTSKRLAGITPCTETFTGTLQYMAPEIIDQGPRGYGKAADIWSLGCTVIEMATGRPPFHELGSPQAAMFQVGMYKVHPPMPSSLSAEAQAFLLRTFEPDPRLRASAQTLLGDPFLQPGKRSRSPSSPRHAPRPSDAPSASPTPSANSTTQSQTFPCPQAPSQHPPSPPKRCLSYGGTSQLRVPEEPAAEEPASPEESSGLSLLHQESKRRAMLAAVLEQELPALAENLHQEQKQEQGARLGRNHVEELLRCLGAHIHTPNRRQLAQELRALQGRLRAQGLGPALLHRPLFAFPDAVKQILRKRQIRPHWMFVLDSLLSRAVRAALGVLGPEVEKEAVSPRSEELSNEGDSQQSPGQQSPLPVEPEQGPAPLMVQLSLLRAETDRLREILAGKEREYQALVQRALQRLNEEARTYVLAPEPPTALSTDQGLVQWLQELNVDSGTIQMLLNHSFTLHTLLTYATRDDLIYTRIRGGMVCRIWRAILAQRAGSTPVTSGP
How it was run: (§1)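 Read-out is percent of control, derived from the signal with compound relative to positive and negative controls: (compound − positive)/(negative − positive) × 100. Each enzyme received test drug at 1 uM in DMSO, and values under 35% count as active.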

[2] = target: T2, scanMAX Kinase assay panel (Homo sapiens, UniProt P36888, R834Q); settings: FLT3 (R834Q); 1 uM; read-out: Percent Control (%)
T2 construct: purchased DiscoverX
T2 sequence (P36888 27-993 R834Q): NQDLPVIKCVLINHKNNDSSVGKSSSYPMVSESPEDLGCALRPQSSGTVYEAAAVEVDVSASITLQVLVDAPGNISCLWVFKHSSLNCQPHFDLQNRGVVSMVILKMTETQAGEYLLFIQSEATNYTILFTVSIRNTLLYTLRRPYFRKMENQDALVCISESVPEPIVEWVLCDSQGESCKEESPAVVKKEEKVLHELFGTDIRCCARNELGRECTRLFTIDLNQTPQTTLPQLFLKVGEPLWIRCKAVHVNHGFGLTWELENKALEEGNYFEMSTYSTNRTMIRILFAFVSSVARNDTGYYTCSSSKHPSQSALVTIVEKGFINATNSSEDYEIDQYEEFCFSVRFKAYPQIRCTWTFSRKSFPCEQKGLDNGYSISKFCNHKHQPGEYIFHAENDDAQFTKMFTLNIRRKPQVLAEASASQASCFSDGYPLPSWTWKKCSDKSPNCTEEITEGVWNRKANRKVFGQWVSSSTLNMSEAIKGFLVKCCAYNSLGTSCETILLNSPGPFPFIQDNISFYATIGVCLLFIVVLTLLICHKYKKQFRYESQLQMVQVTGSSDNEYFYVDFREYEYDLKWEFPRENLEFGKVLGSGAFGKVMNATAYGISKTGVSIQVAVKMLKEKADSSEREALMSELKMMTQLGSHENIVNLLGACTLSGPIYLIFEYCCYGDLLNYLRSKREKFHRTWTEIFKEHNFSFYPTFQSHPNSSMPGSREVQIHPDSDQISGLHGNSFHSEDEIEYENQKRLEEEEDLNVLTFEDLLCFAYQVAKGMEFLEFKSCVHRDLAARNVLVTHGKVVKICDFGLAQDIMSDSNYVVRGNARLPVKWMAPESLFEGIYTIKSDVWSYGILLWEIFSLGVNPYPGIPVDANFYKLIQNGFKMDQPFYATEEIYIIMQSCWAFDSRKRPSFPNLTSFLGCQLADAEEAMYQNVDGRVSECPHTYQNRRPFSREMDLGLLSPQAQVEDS
How it was run: as §1

[3] = target: T3, scanMAX Kinase assay panel (Homo sapiens, UniProt P41240); settings: CSK; 1 uM; read-out: Percent Control (%)
T3 construct: purchased DiscoverX
How it was run: as §1

[4] = target: T4, scanMAX Kinase assay panel (Homo sapiens, UniProt Q9Y2H9); settings: MAST1; 1 uM; read-out: Percent Control (%)
T4 construct: purchased DiscoverX
How it was run: as §1

[5] = target: T5, scanMAX Kinase assay panel (Homo sapiens, UniProt Q9Y2K2); settings: QSK; 1 uM; read-out: Percent Control (%)
T5 construct: purchased DiscoverX
How it was run: as §1

[6] = target: T6, scanMAX Kinase assay panel (Homo sapiens, UniProt Q9Y6E0); settings: MST3; 1 uM; read-out: Percent Control (%)
T6 construct: purchased DiscoverX
How it was run: as §1

[7] = target: T7, scanMAX Kinase assay panel (Homo sapiens, UniProt Q9Y6M4); settings: CSNK1G3; 1 uM; read-out: Percent Control (%)
T7 construct: purchased DiscoverX
How it was run: as §1

T7 sequence (Q9Y6M4 whole entry): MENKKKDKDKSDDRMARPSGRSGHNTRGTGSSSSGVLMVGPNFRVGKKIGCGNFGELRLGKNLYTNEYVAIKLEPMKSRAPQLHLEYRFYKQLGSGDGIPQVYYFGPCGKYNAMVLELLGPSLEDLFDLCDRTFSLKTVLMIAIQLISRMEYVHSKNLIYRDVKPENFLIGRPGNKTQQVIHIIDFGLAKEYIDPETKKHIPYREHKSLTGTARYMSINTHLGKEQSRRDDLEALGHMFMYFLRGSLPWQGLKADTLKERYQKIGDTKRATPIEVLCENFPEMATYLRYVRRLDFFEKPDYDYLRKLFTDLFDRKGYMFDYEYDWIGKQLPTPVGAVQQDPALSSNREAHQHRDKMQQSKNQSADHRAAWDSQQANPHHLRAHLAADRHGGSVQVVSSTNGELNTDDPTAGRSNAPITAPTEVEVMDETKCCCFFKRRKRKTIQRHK
T6 sequence (Q9Y6E0 whole entry): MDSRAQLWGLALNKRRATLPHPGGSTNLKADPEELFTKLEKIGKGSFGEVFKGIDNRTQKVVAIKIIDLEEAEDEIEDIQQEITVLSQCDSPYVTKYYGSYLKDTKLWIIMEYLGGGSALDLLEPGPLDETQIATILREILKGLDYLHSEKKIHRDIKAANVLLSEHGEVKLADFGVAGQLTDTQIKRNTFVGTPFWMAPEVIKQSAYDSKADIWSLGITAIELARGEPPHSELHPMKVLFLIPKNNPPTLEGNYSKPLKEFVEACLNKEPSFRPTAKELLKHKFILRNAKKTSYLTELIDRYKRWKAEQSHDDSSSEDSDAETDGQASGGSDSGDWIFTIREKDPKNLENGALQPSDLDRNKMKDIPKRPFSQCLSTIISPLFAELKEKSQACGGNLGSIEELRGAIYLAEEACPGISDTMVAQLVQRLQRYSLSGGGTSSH
T3 sequence (P41240 whole entry): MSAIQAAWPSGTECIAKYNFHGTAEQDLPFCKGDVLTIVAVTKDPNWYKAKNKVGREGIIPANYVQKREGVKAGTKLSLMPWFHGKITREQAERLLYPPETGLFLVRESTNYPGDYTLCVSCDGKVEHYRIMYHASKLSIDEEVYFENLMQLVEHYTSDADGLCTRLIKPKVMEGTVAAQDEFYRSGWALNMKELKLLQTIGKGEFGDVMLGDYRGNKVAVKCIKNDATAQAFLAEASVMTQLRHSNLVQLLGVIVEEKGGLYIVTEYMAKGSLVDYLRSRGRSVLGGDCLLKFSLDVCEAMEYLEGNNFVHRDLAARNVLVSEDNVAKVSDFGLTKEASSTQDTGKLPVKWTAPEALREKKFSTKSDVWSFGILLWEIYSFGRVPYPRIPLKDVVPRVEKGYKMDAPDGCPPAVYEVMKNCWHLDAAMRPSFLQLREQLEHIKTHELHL
T4 sequence (Q9Y2H9 whole entry): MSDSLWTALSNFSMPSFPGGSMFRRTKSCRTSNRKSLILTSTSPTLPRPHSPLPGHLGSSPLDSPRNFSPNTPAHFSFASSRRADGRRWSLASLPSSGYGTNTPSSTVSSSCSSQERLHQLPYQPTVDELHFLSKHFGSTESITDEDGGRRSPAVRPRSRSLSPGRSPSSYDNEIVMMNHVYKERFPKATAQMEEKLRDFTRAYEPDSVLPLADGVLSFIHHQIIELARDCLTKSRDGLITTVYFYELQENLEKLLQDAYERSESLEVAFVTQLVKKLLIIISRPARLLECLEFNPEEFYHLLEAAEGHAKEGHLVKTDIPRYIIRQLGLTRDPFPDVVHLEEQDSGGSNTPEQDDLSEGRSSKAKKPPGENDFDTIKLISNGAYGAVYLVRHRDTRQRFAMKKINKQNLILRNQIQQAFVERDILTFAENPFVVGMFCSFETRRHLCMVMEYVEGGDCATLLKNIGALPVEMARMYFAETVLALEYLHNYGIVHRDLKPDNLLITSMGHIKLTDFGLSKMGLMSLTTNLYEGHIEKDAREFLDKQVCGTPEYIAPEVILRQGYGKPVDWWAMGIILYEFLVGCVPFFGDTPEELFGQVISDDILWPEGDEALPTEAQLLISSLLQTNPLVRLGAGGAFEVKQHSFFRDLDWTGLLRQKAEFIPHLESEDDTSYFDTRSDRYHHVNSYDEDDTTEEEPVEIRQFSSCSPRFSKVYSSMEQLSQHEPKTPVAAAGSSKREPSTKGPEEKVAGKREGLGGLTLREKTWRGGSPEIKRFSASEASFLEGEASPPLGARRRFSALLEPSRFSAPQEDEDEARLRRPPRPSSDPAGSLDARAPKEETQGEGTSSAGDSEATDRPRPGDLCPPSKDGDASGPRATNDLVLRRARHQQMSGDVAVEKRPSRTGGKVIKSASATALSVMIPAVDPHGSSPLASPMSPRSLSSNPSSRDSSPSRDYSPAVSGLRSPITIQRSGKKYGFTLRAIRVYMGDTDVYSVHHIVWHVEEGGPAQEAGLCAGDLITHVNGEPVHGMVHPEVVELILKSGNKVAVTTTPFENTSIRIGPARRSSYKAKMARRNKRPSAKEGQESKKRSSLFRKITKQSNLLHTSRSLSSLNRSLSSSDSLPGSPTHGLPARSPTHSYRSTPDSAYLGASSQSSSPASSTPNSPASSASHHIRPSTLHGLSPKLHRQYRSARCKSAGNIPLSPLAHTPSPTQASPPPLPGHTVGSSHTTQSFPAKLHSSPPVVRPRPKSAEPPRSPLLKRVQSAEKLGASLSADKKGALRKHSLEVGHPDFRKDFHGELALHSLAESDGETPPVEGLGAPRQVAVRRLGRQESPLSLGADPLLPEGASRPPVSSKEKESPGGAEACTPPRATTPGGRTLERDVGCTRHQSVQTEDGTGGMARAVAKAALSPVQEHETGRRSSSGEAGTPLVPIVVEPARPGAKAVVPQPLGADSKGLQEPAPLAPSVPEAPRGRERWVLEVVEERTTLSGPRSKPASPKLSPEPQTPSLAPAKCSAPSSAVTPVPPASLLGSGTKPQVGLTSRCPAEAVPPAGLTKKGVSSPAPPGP
T5 sequence (Q9Y2K2 whole entry): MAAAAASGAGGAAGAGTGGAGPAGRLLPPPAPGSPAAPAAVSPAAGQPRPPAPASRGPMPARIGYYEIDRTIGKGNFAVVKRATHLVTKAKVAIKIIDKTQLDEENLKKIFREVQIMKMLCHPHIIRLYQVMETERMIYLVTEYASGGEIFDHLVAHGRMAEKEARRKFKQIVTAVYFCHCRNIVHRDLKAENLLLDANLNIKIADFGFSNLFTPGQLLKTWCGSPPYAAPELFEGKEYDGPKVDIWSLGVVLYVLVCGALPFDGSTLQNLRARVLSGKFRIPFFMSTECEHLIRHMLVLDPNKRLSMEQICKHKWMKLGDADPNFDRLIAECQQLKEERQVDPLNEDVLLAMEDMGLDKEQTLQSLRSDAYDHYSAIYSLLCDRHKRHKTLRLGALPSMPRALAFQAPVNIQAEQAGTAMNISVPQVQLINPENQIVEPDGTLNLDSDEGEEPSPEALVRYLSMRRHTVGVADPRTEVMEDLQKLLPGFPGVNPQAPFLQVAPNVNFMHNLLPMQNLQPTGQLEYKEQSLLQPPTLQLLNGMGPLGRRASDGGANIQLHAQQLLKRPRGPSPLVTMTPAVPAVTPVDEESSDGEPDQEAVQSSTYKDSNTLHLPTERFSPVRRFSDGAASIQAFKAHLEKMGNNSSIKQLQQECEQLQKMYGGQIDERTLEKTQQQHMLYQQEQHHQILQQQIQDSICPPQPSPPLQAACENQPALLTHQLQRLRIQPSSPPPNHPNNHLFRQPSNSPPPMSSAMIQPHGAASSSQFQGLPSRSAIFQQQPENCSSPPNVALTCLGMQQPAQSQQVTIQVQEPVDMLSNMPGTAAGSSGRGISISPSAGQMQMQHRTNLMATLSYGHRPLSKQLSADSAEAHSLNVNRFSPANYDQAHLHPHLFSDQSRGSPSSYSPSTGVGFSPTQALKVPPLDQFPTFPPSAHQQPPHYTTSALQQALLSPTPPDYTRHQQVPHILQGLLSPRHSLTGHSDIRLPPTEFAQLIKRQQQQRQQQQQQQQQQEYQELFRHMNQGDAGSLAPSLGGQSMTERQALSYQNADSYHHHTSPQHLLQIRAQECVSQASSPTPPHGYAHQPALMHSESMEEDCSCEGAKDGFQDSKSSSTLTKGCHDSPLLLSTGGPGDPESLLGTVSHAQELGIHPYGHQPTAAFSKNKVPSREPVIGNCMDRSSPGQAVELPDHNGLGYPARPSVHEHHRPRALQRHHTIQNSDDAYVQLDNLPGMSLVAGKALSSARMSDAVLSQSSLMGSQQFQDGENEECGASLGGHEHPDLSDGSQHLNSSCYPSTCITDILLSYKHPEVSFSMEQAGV

Structure (SMILES) | remaining binding at 1 µM [1] | remaining binding at 1 µM [2] | remaining binding at 1 µM [3] | remaining binding at 1 µM [4] | remaining binding at 1 µM [5] | remaining binding at 1 µM [6] | remaining binding at 1 µM [7]
Cc1ccc(C(=O)Nc2ccc(CN3CCN(C)CC3)c(C(F)(F)F)c2)cc1C#Cc1cnc2c(Nc3cnn(C)c3)cccn12 [Example 1, 4-methyl-3-((8-((1-methyl-1H-pyrazol-4-yl)amino)imidazo[1,2-a]pyridin-3-yl)ethynyl)-N-(4-((4-methylpiperazin-1-yl)methyl)-3-(trifluoromethyl)phenyl)benzamide] | 71% | 3% | 2% | 81% | 89% | 62% | 100%
Cc1cn(-c2cc(NC(=O)c3ccc(C)c(C#Cc4cnc5c(Nc6cnn(C)c6)cccn45)c3)cc(C(F)(F)F)c2)cn1 [Example 12, 4-methyl-N-(3-(4-methyl-1H-imidazol-1-yl)-5-(trifluoromethyl)phenyl)-3-((8-((1-methyl-1H-pyrazol-4-yl)amino)imidazo[1,2-a]pyridin-3-yl)ethynyl)benzamide] | 81% | 62% | 1% | 56% | 97% | 86% | 84%
Cc1ccc(NC(=O)C2(C(=O)Nc3ccc(F)cc3)CC2)cc1C#Cc1cnc2c(Nc3cnn(C(C)C)c3)cccn12 [Example 78] | 100% | 100% | 98% | 82% | 100% | 100% | 100%
